Read-outs that look alike come from different tables or passages of the source. One block for each molecule: values may come before it. Residues, ends and D or L forms follow the SMILES beside them. No end group written: not given here.
Legend:
MAS [1] = target: T1, MAS (Homo sapiens, UniProt P04201); parameters: method as in ref [10,11] (a number printed in a supplementary file, which may have a reference list of its own: not looked up in the article's list); details: ref [10,11], read-out: EC50 (Calcium assay); cited from earlier work
T1 construct: expressed in transfected cells
T1 sequence (P04201 1-325): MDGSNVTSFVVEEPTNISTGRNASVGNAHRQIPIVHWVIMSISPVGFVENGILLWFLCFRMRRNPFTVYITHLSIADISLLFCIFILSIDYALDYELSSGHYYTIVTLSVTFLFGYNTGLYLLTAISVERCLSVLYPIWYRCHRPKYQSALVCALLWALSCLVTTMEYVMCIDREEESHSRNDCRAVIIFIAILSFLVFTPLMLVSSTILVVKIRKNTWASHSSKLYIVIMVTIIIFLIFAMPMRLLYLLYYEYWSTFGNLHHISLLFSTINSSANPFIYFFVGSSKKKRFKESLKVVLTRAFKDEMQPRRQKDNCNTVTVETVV

MAS [2] = target: T1, MAS; experiment: FLIPR calcium assay, induced myc-tagged WT MAS HEK293 stable cell line; assay type: cell-based; details: WT MAS; for EC50 / EC50, Calcium assay: induced cells
Protocol: The assay was performed using FLIPR Calcium 5 assay kit (Molecular Devices, Sunnyvale, CA). For calcium measurements, cells at a density of 125,000 cells/well in 100 µl medium were seeded onto a 96-well clear bottom black cell culture plate that was pre-coated with poly-L-lysine. In the calcium assays the cell density of 125,000 cells/well was consistently maintained to minimize variability between independent experiments. The cells were seeded in induction media to induce MAS expression or in complete media for negative controls. The plate was maintained in a cell culture incubator for 26–28 h. The cells were then serum starved for 2 h by replacing the medium with 100 µl of serum free DMEM. In the case of pre-treatment with pan-inhibitor of G protein signaling, BIM-46187, the cells were initially serum starved for 1 h by replacing the medium with 50 µl of serum free DMEM. After 1 h, 50 µl of BIM-46187 was added to the cells to a final concentration of 25 µM and treated for another 1 h. Following serum starvation, 100 µl of calcium sensitive dye along with 2x (2.5 mM final concentration) probenecid (Life Technologies, Grand Island, NY) was added to the cells. During this step, AR-inverse agonist or BIM-46187 was also added at desired concentrations to the calcium dye preparation in case of experiments where cells were pre-treated with these inhibitors. The cells were maintained for one hour in the cell culture incubator. Following this, the 96-well plate containing cells loaded with calcium dye and a U-bottom 96-well plate containing ligands at 5x the desired final concentration in D-PBS (1.47 mM KH2PO4, 138 mM NaCl, 2.67 mM KCl, 8.1 mM Na2HPO4, pH 7.3) were allowed to equilibrate for 15 min on a FlexStation 3 instrument (Molecular Devices, Sunnyvale, CA) at 37°C. The plates were further equilibrated on the instrument for 5 min with the lids removed from the plates. The instrument was programmed in FLEX mode to add ligands (50 µl at 5x concentration) to the cells and to monitor the fluorescence before and after adding the ligands. In re-stimulation and antagonism assays the instrument is programmed to add 35 µl of first ligand followed by addition of the second ligand (35 µl) after 10 min. […] Therefore, when using 5x ligand stock the maximum AR-agonist concentration that could be tested was 10 µM.
In the calcium assays, the maximum response and minimum response values in relative fluorescence units (RFU) were extracted by subtracting the corresponding baseline value wherein baseline is defined as the average fluorescence of all time points before addition of ligand.
The kinetic parameter t1/2 (time taken to reach half of the maximum response) was determined using SoftMax Pro software supplied with the FlexStation 3 instrument (Molecular Devices, Sunnyvale, CA).
For re-stimulation assays, the data is expressed as the percentage of maximum agonist stimulation to allow for ready comparison between individual experiments. […] For all the assays, the EC50 and IC50 values were estimated by fitting the data to a three parameter dose response using GraphPad Prism software (GraphPad, La Jolla, CA).

MAS [3] = test system: MAS; parameters: method as in ref [8] (a number printed in a supplementary file, which may have a reference list of its own: not looked up in the article's list); details: Bovine MAS; ref [8]; cited from earlier work
MAS [4] = target: T1, MAS; parameters: method as in ref [3] (a number printed in a supplementary file, which may have a reference list of its own: not looked up in the article's list); details: ref [3]; cited from earlier work
[5] = target: T2, myc-tagged wild-type human MAS receptor (human) (UniProt P04201)
T2 sequence: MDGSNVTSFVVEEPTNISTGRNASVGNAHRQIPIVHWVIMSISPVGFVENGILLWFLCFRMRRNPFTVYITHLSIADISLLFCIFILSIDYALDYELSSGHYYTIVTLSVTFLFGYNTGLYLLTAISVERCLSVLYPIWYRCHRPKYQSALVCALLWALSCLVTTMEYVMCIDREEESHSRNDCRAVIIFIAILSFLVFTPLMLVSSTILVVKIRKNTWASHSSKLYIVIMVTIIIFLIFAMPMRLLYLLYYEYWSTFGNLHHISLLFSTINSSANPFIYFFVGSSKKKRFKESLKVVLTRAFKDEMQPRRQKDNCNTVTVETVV

[6] = target: T2, myc-tagged wild-type human MAS receptor (human); remark: listed apart in the source

Molecule: P33 / CGEN-857: peptide agonist, sequence SMCHRWSRAVLFPAAHRP
- EC50 (MAS [1]): 1 µM

Molecule: CCNC(=O)NS(=O)(=O)c1sc(CC(C)C)cc1-c1ccc(Cn2c(-c3ccccc3)nc(OC)c2C=O)cc1 [AVE 0991]
- Remarks: Ang(1-7)-like effects (MAS [3]): Mimics Ang(1-7) effects

Molecule: VYIHP [Ang(3–7)]
- EC50, Calcium assay (MAS [2]): cbd

B1: [^DY^1] [^NMeF^3]-NPFF (peptide)
peptide: YLFQPQRF
HELM: PEPTIDE1{[dY].L.[meF].Q.P.Q.R.F.[am]}$$$$V2.0; N-terminus assumed
SMILES: CC(C)C[C@H](NC(=O)[C@H](N)Cc1ccc(O)cc1)C(=O)N(C)[C@@H](Cc1ccccc1)C(=O)N[C@@H](CCC(N)=O)C(=O)N1CCC[C@H]1C(=O)N[C@@H](CCC(N)=O)C(=O)N[C@@H](CCCNC(=N)N)C(=O)N[C@@H](Cc1ccccc1)C(N)=O
- EC50, calcium assay, induced WT MAS stable HEK293 cells [5]: 2.4 µM

Molecule: RVYIHPF [AngIII]
- EC50, calcium assay, induced WT MAS stable HEK293 cells (response incompletely inhibited by AR-inverse agonist; non-specific response in un-induced cells at 1 mM) [6]: 30.7 µM

Molecule: VYIHPF-NH2 [AngIV-amide]
- EC50, calcium assay, induced WT MAS stable HEK293 cells (response incompletely inhibited by AR-inverse agonist; non-specific response in un-induced cells at 1 mM) [6]: 24.4 µM

B2: [Sar^1]-Ang(1–7)-amide (peptide)
peptide: GRVYIHP
HELM: PEPTIDE1{[Sar].R.V.Y.I.H.P.[am]}$$$$V2.0; N-terminus assumed
SMILES: CC[C@H](C)[C@H](NC(=O)[C@H](Cc1ccc(O)cc1)NC(=O)[C@@H](NC(=O)[C@H](CCCNC(=N)N)NC(=O)CNC)C(C)C)C(=O)N[C@@H](Cc1c[nH]cn1)C(=O)N1CCC[C@H]1C(N)=O
- EC50, calcium assay, induced WT MAS stable HEK293 cells [6]: 193 µM

The next lines start with results.

- EC50 (MAS [2]): 193 ± 59 µM
- t1/2, Calcium assay (MAS [2]; t1/2 at 100 µM ligand concentration): 18.2 ± 1.2 s
Molecule: CC[C@H](C)[C@H](NC(=O)[C@H](Cc1ccc(O)cc1)NC(=O)[C@@H](NC(=O)[C@H](CCCN=C(N)N)NC(=O)CNC)C(C)C)C(=O)N[C@@H](Cc1c[nH]cn1)C(=O)N1CCC[C@H]1C(N)=O [[Sar^1]-Ang(1–7)-amide]

- EC50, Calcium assay (MAS [2]): cbd
- t1/2, Calcium assay (MAS [2]; t1/2 at 1000 µM (1 mM) ligand concentration): 10.4 ± 0.3 s
Molecule: CC[C@H](C)[C@H](NC(=O)[C@H](Cc1ccc(O)cc1)NC(=O)[C@@H](N)C(C)C)C(=O)N[C@@H](Cc1cnc[nH]1)C(=O)N1CCC[C@H]1C(=O)N[C@@H](Cc1ccccc1)C(=O)O [AngIV / Ang(3–8), Angiotensin IV]
- Type (Arachidonic acid release assay) (MAS [4]): Agonist

- EC50 (MAS [2]): 2.4 ± 0.3 µM
Molecule: CC(C)C[C@H](NC(=O)[C@H](N)Cc1ccc(O)cc1)C(=O)N(C)[C@@H](Cc1ccccc1)C(=O)N[C@@H](CCC(N)=O)C(=O)N1CCC[C@H]1C(=O)N[C@@H](CCC(N)=O)C(=O)N[C@@H](CCCN=C(N)N)C(=O)N[C@@H](Cc1ccccc1)C(N)=O [[^DY^1] [^NMeF^3]-NPFF] (HELM PEPTIDE1{[dY].L.[meF].Q.P.Q.R.F.[am]}$$$$V2.0)

- EC50, calcium assay, induced WT MAS stable HEK293 cells [5]: 3 µM
Molecule: NPFF-C (peptide)

- EC50, calcium assay, induced WT MAS stable HEK293 cells [5]: 12.2 µM
Molecule: YLFQPQRF-NH2 [[Y^1]-NPFF]

From paper PMC4113456, “Atypical Signaling and Functional Desensitization Response of MAS Receptor to Peptide Ligands” (PLoS ONE, 2014)
